{
  "source": "patent US11324750B2",
  "about": "“Compositions and methods for the treatment of severe acute respiratory syndrome coronavirus 2 (SARS-CoV-2) infection” (Children's Hospital Medical Center, priority 2020, dated 2022)",
  "key": {"48 cytokines in serum": {"system": "48 cytokines in serum", "experiment": "Serum cytokines, Bio-Plex Pro Human Cytokines 48-Plex Screening assay", "conditions": "in vivo"}, "SARS-CoV-2 [1]": {"system": "SARS-CoV-2", "experiment": "SARS-CoV-2 copies number in blood by one-step RT-ddPCR", "type": "in vivo"}, "[2]": {"system": "SARS-CoV-2-specific IgM and IgG", "experiment": "SARS-CoV-2-specific IgM and IgG detection (CLIA)", "type": "in vivo, human", "conditions": "vs control group", "description": "SARS-CoV-2-specific IgM and IgG detection. The SARS-CoV-2-specific IgM and IgG were detected by paramagnetic particle chemiluminescent immunoassay (CLIA) using iFlash-SARS-CoV-2 IgM/IgG assay kit (SHENZHEN YHLO BIOTECH CO., LTD.) and iFlash Immunoassay Analyzer (SHENZHEN YHLO BIOTECH CO., LTD.)\nProcedures. The first day of randomization was designated as D0. The second and the fourth day after randomization were designated D1 and D3, respectively. Dx referred to the day when either disease progressed according to the Chinese management guideline for COVID-19 (version 5.0) or defined as a one-category increase on the seven-category scale. Dend was the day before discharge. The enrolled patients were randomly separated into two groups: the treatment group (group B) received oral intake of ruxolitinib (Jakafi®, Novartis Pharma Stein AG, Switzerland) 5 mg twice a day plus standard-of-care (SoC); the control group (group A) is treated with placebo twice a day with SoC. […] Safety was monitored daily by two independent senior physicians from the trial center. […] The CT features of improvement were evaluated by two independent senior radiologists blindly, which should at least meet one of the following criteria: decreased presence of ground-glass opacities (GGO), decreased lung opacification, reduced density of consolidation or decreased pleural effusion with existence of fibrous stripes^29. […]"}, "severe COVID-19 patients": {"system": "severe COVID-19 patients", "experiment": "Randomized controlled trial, clinical outcomes (seven-category ordinal scale, chest CT, mortality, lymphocyte recovery, supportive treatments)", "type": "in vivo, human", "conditions": "for CT scan follow-up within 14 days: Improvement, %: P 0.07 vs control", "description": "As of the effective date of this application, no therapeutics have yet been proven effective for the treatment of severe COVID-19 with cytokine storm. Ruxolitinib, a potent and selective oral inhibitor of Janus kinase (JAK) 1 and JAK2, was proposed by Applicant to be beneficial in the treatment of cytokine storm. Applicant conducted a prospective, multicenter, single-blind, randomized controlled trial involving participants diagnosed as severe COVID-19 patients. The enrolled patients were randomly separated into two groups with a 1:1 allocation by an independent statistician in blocks of 4 for all 3 sites. Study number and treatment allocation codes were provided in sequentially numbered opaque envelops. Intervention group is treated with ongoing oral intake 5 mg of ruxolitinib (Jakafi®, Novartis Pharma Stein AG, Switzerland) twice a day based on the standard-of-care (SoC); the control group is treated with placebo plus SoC. The primary endpoint was the incidence of serious adverse events occurring up to 28 days and the time to clinical improvement. The secondary endpoint is the overall mortality at D28. This trial is registered at www.chictr.org.cn as ChiCTR-OPN-2000029580.\nA prospective, single-blind, randomized controlled trial was designed. Participants diagnosed as positive for COVID-19 were enrolled for screening in three hospitals including Tongji hospital and No. 1 hospital in Wuhan and the Third Xiangya hospital in Changsha, China. The original protocol included secondary randomization in a treatment group for infusion of mesenchymal stem cells if the patient's clinical response had deteriorated within seven days after first randomization. Because no deterioration had occurred in patients of the treatment group within seven days after first randomization and secondary randomization was unnecessary, the protocol was updated correspondingly. This study was approved by the Medical ethics committee of Tongji Hospital, Tongji Medical College, Huazhong University of Science and Technology, Wuhan, China, registered at www.chictr.org.cn as ChiCTR-OPN-2000029580.\nParticipants. All participants were required to meet the following inclusion criteria: (1) enrolled patients met the diagnostic criterial for COVID-19. The diagnosis and the illness severity of COVID-19 were defined according to the Chinese management guideline for COVID-19 (version 5.0)^28; (2) patients were eligible if they were 18 years or older and younger than 75 years. (3) only severe cases were enrolled. Exclusion criterial included: (1) patients with other malignant tumors in the course of treatment; (2) patients with severe cardiovascular and metabolic disease in unstable status, even if treated with drugs; (3) patients with mental or severe psychiatric disorder who are unable to understand or abide the study protocols; (4) patients needing orotracheal intubation or invasive ventilation; (5) patients who cannot guarantee to complete the scheduled treatment plan and follow-up; (6) women of child-bearing age having positive pregnancy test or still lactating; (7) patients having other active infections; (8) patients having any conditions deemed to potentially affect the safety of the study protocols. Written informed consent was obtained from all patients or the patients' legal representative if the patient was too unwell to provide the consent.\nRandomization and masking. The enrolled patients were then randomly allocated into two groups with a 1:1 allocation ratio by an independent statistician using permuted blocks of 4 for all 3 sites. Patient unique identification number and treatment allocation codes were provided in sequentially numbered opaque envelops. Treating physicians were aware of group allocations while the enrolled participants, staff at trial sites, CT radiologists and laboratory personnel were masked to the trial group assignment.\nProcedures. The first day of randomization was designated as D0. […]"}, "SARS-CoV-2 [3]": {"system": "SARS-CoV-2", "experiment": "Virus clearance time by RT-PCR on throat swab", "type": "in vivo", "conditions": "median (IQR); patients with positive RT-PCR on throat swab; P 0.85 (table), P=0.65"}},
  "note": "Entries after “also recorded” stand apart in the source; their conditions may differ.",
  "data": [
    {"compound": "N#CC[C@H](C1CCCC1)n1cc(-c2ncnc3[nH]ccc23)cn1", "note": "[Ruxolitinib, (3R)-3-cyclopentyl-3-[4-(7H-pyrrolo[2,3-d]pyrimidin-4-yl)pyrazol-1-yl]propanenitrile]", "values": [
      {"measurement": "Average fold-change of 48 cytokines", "setting": "48 cytokines in serum", "result": 0.466},
      {"measurement": "Average values of 48 cytokines", "setting": "48 cytokines in serum", "result": "decreased significantly; also recorded: all average values of 48 cytokines decreased"},
      {"measurement": "Level of MIP-1α", "setting": "48 cytokines in serum", "result": "markedly decreased"},
      {"measurement": "Level of interleukin-6 (IL-6)", "setting": "48 cytokines in serum", "result": "markedly decreased"},
      {"measurement": "Level of interleukin-12 (IL-12) (p40)", "setting": "48 cytokines in serum", "result": "markedly decreased"},
      {"measurement": "Level of macrophage inflammatory protein 1β (MIP-1β)", "setting": "48 cytokines in serum", "result": "markedly decreased"},
      {"measurement": "Level of macrophage migration inhibitory factor (MIF)", "setting": "48 cytokines in serum", "result": "markedly decreased"},
      {"measurement": "Level of nerve growth factor β (NGF-β)", "setting": "48 cytokines in serum", "result": "markedly decreased"},
      {"measurement": "Level of vascular endothelial growth factor (VEGF)", "setting": "48 cytokines in serum", "result": "markedly decreased"},
      {"measurement": "Blood viral RNA loads at D1", "setting": "SARS-CoV-2 [1]; mean (±SEM), baseline, P=0.57 vs control", "result": "94±26", "unit": "copies per milliliter"},
      {"measurement": "Viral load at discharge", "setting": "SARS-CoV-2 [1]; vs SoC alone, P=0.63", "result": "did not differ"},
      {"measurement": "Peak IgG against SARS-CoV-2", "setting": "[2]", "result": "no significant difference"},
      {"measurement": "Peak level of anti-IgM of SARS-CoV-2", "setting": "[2]; P=0.039", "result": "profoundly higher"},
      {"measurement": "CT scan follow-up within 14 days: Progression, %", "setting": "severe COVID-19 patients; chest CT, N = 20", "result": "(5.0%)"},
      {"measurement": "CT scan follow-up within 14 days: Stable, %", "setting": "severe COVID-19 patients; chest CT, N = 20", "result": "(5.0%)"},
      {"measurement": "CT scan follow-up within 14 days: Improvement, %", "setting": "severe COVID-19 patients; chest CT, N = 20", "result": "(90.0%)"},
      {"measurement": "CT scan follow-up within 14 days: Improvement, %", "setting": "severe COVID-19 patients; chest CT, N = 20, listed as ruxolitinib", "result": 90, "unit": "%"},
      {"measurement": "Time from randomization to death", "setting": "severe COVID-19 patients; median (IQR)", "result": 0, "unit": "days"},
      {"measurement": "Time from randomization to discharge", "setting": "severe COVID-19 patients; median (IQR), P 0.94 vs control", "result": 17, "unit": "days"},
      {"measurement": "Time to lymphocyte recovery", "setting": "severe COVID-19 patients; median (IQR), patients with lymphopenia, log-rank P 0.03 vs control", "result": 5, "unit": "days"},
      {"measurement": "Time to clinical improvement", "setting": "severe COVID-19 patients; median (IQR), primary efficacy endpoint, log-rank P 0.15 vs control", "result": 12, "unit": "days"},
      {"measurement": "Clinical improvement Day 28, %", "setting": "severe COVID-19 patients; seven-category ordinal scale, N = 20, P 0.23 vs control", "result": "(100.0%)"},
      {"measurement": "Clinical improvement Day 14, %", "setting": "severe COVID-19 patients; seven-category ordinal scale, N = 20, P 0.35 vs control", "result": "(60.0%)"},
      {"measurement": "Clinical improvement Day 7, %", "setting": "severe COVID-19 patients; seven-category ordinal scale, N = 20, P 0.41 vs control", "result": "(20.0%)"},
      {"measurement": "Clinical improvement Day 21, %", "setting": "severe COVID-19 patients; seven-category ordinal scale, N = 20, P 1.00 vs control", "result": "(90.0%)"},
      {"measurement": "Virus clearance time", "setting": "SARS-CoV-2 [3]", "result": 13, "unit": "days"}
    ]}
  ]
}
